# According to PMC6651024, “LIR Motif-Containing Hyperdisulfide β-Ginkgotide is Cytoprotective, Adaptogenic, and Scaffold-Ready” (Molecules, 2019):
# “Also recorded” adds a separate entry of the source. Like-named read-outs stand apart in the source and are kept apart here. Where a SMILES comes first, the peptide text is derived from it.
# Tests used:
# SH-SY5Y cells [1] = experiment: Hypoxia-reoxygenation injury, MTT assay, SH-SY5Y; type: cell-based, human; details: 1 µM peptide, 24 h hypoxia then 24 h normoxia, triplicates
# Method: Cells were cultured with or without β-gB1 and its S-alkylated β-gB1, first under the hypoxic condition for 24 h and then at a normal oxygen environment for another 24 h. The cell viability under hypoxia-reoxygenation condition was assessed by the MTT assay.
# (§1) Rat cardio-myoblast cells (H9c2) and […] neuron-like SH-SY5Y cells were purchased from ATCC and maintained in DMEM (Dulbecco’s modified eagle medium) medium supplemented with 10% fetal bovine serum (FBS), 10,000 U/mL of penicillin, and 10,000 µg/mL of streptomycin at 37 °C, 5% CO2.
# Cells were seeded in a cell culture medium with/without β-gB1 and incubated at 37 °C, 5% CO2 overnight. The next day, the cells were locked inside a BD GasPak EZ anaerobe pouch system (BD Diagnostics, MD) and incubated at 37 °C for the next 48 h for the hypoxia condition. In addition, the cells were cultured under a normal oxygenated environment for the normoxic control. In hypoxia-reoxygenation experiments, the cells were incubated for 24 h in hypoxic conditions before being incubated for another 24 h under normoxia.
# Phosphate-buffered saline (PBS) was used as a vehicle control.
# SH-SY5Y cells [2] = experiment: MTT-based cell proliferation assay under normoxia, SH-SY5Y; set-up: species or system human; details: 10 µM peptide, 48 h, triplicates
# Description: (§2) In addition, β-gB1 is non-toxic to Vero and BHK (baby hamster kidney) cell lines based on an MTT assay. […] LDH is a cytoplasmic enzyme which is rapidly released into the cell culture medium upon plasma membrane damage and is widely used as a marker for cytotoxicity. Thus, an LDH-release assay measures the level of plasma membrane damage to a cell population.
# as §1
# Cells were cultured in DMEM with or without β-gB1/S-alkylated β-gB1 (β-gB1Alk) for 48 h under normoxia, hypoxia, and hypoxia-reoxygenation conditions. Phosphate-buffered saline (PBS) was used as a vehicle control. After 48 h, MTT (3-(4,5-dimethylthiazol-2-yl)-2,5-diphenyltetrazolium bromide) reagent was added with a final concentration of 0.5 mg/mL, and it was incubated at 37 °C for 2 h. The culture medium was then aspirated, and purple formazan crystals were dissolved in DMSO for colorimetric quantification at 570 nm using a microplate reader with a reference wavelength of 630 nm. […]
# H9c2 cells [3] = type: cell-based, rat; details: 48 h hypoxia, MTT
# Method: Autophagy is an integrated stress response that clears the subcellular damages. Previous studies have shown that such damages can be induced by hypoxia and hypoxia-reoxygenation stress. Clearing subcellular damages would increase survivability. In traditional medicine, G. biloba is used as an herbal remedy for acute ischemic stroke and post-stroke recovery. To examine the effects of β-gB1 in hypoxia stress, we used cardio-myoblast H9c2 and SH-SY5Y cells. Cells were cultured with or without β-gB1 and incubated in a hypoxic environment for 48 h before the assessment of cell survival by the MTT assay. […] Importantly, when the concentration of β-gB1 was reduced tenfold from 10 to 1 µM, a 22–24% increase of survivability was still observed in H9c2 and SH-SY5Y cells (Figure 3A–D). […]
# Cells were cultured in DMEM with or without β-gB1/S-alkylated β-gB1 (β-gB1Alk) for 48 h under normoxia, hypoxia, and hypoxia-reoxygenation conditions. […] The culture medium was then aspirated, and purple formazan crystals were dissolved in DMSO for colorimetric quantification at 570 nm using a microplate reader with a reference wavelength of 630 nm. […]
# [4] = Enzymatic (proteolytic) stability against trypsin; type: in vitro ADME; details: isolated enzyme trypsin; 800 U/mL trypsin, 0.1 M ammonium bicarbonate buffer pH 7.8, 37 °C, 6 h; 28 µg peptide in 100 µL; MALDI-TOF MS and C18 RP-HPLC; read-out: Peptide remaining intact after trypsin treatment
# Method: To assess the proteolytic stability of β-gB1, it was treated with trypsin or pepsin for 6 h. […] Similarly, the S-alkylated β-gB1 was degraded completely by pepsin within 30 min. […] This is in agreement with other plant CRPs that contain a compact structure, whose proteolytic stability was examined up to six hours treatment.
# The folded β-gB1 (28 µg) was added to 100 μL of a 0.1 M ammonium bicarbonate buffer (pH 7.8) containing 800 U/mL of trypsin or 4 mg/mL of pepsin and incubated at 37 °C for 6 h. At each time-point (0, 1, 2, 4, and 6 h), 20 µL of the treated sample was aliquoted and quenched by adding 5 µL of 1 M hydrochloric acid or 0.8 μL of 1 M sodium hydroxide. The reduced β-gB1 was alkylated with iodoacetamide (S-alkylated β-gB1) and used as a control in this study. The reaction mixture was analyzed by MALDI-TOF MS and C18-reversed-phase HPLC to determine its stability.
# Vero cell line = details: MTT assay; cited from earlier work
# Description: (§3) In addition, β-gB1 is non-toxic to Vero and BHK (baby hamster kidney) cell lines based on an MTT assay. […] LDH is a cytoplasmic enzyme which is rapidly released int ...
# [5] = test system: BHK (baby hamster kidney) cell line; details: MTT assay; cited from earlier work
# Description: as §3
# Candida albicans = details: concentrations up to 100 µM; cited from earlier work
# Candida tropicalis = details: concentrations up to 100 µM; cited from earlier work
# H9c2 cells [6] = experiment: LDH release cytotoxicity assay, H9c2; type: cell-based, rat; details: H9c2, 10 µM peptide, 48 h, 37 °C; LDH kit, 450 nm; triplicates
# Description: as §2, §1
# An LDH release assay was performed using the CytoSelect™ LDH cytotoxicity assay kit (CBA-241, Cell Biolabs, Inc., San Diego, CA, USA). In brief, cells were cultured in DMEM with or without 10 µM of β-gB1 and S-alkylated β-gB1 (β-gB1Alk) for 48 h at 37 °C and 5% CO2. PBS was used for the vehicle control experiment. The culture medium was transferred and mixed with the LDH assay reagent in a ratio of 9:1. The reaction mixture was incubated at 37 °C for 2 h, and colorimetric quantification was performed using a 450 nm wavelength. The assay was performed in experimental triplicates, and statistical calculations and bar graphs were done using GraphPad Prism software (Version 6.01). […]
smiles,measurement,setting,value
"CC[C@H](C)[C@@H]1NC(=O)[C@@H]2CSSC[C@H](NC(=O)CNC(=O)[C@@H](NC(=O)[C@H](CCC(=O)O)NC(=O)[C@@H](N)Cc3ccc(O)cc3)[C@@H](C)O)C(=O)N[C@@H](CCCCN)C(=O)N[C@@H](CCCNC(=N)N)C(=O)N[C@H]3CSSC[C@@H](C(=O)O)NC(=O)[C@H](CSSC[C@H](NC3=O)C(=O)N[C@@H](Cc3ccc(O)cc3)C(=O)N[C@@H](CC(C)C)C(=O)N[C@@H](CC(=O)O)C(=O)N[C@@H](CCC(=O)O)C(=O)N[C@@H](Cc3ccc(O)cc3)C(=O)NCC(=O)N2)NC(=O)[C@H](CCCNC(=N)N)NC1=O [β-gB1] (HELM PEPTIDE1{Y.E.T.G.C.K.R.C.C.Y.L.D.E.Y.G.C.I.R.C.C}$PEPTIDE1,PEPTIDE1,5:R3-16:R3|PEPTIDE1,PEPTIDE1,8:R3-20:R3|PEPTIDE1,PEPTIDE1,9:R3-19:R3$$$V2.0; N-terminus and C-terminus assumed)",Increase of cell survivability under hypoxia-reoxygenation,SH-SY5Y cells [1],19%
same,Cell viability (growth or death) under normoxia,SH-SY5Y cells [2],No change in cell viability; also recorded: no significant effect on the growth or death
same,Increase of cell survivability under hypoxia,"H9c2 cells [3]; H9c2, 1 µM peptide, range printed jointly for H9c2 and SH-SY5Y",22–24%
same,Increase of cell survivability under hypoxia,"H9c2 cells [3]; H9c2, 10 µM peptide, triplicates",37%
same,remaining at 6 h,[4],~90%
same,Toxicity to cell line,Vero cell line,non-toxic
same,Toxicity to cell line,[5],non-toxic
same,Antimicrobial effect,Candida albicans,does not exhibit an antimicrobial effect
same,Antimicrobial effect,Candida tropicalis,does not exhibit an antimicrobial effect
same,Cytotoxicity / cell-membrane damage by LDH release,H9c2 cells [6],no significant cytotoxicity or cell-membrane damaging effects
